This is an account of results in patent US20240238228A1, “COMPOSITIONS AND METHODS FOR TREATING ALLERGIES AND INFLAMMATORY CONDITIONS” (UNIVERSITY OF PITTSBURGH-OF THE COMMONWEALTH SYSTEM OF …, priority 2021, published 2024).

In one test the test system is IL10-eGFP^+ MCs. Description: IL-10-GFP expression in skin mast cells of VERT-X reporter mice. The format is in vivo, mouse. As to conditions: with and without PCA induction. Here is the method:
C6(Cg)-IL10^tm1.1.Karp/J (VERT-X) mice (Jackson Laboratories) were bred at the University of Pittsburgh. On d0, mice were treated with vehicle on one ear and IgE on the contralateral ear. On day 1, mice were treated with either NKA ([…]) on both ears or vehicle on both ears. Three hours later, PCA was induced. On day 2, mice were euthanized. Excised Ear tissue was digested in IMDM media (Life Technologies) containing collagenase D (Sigma, 1.0 mg/mL) and DNAase (Roche, 1.0 mg/mL) at 37 C for 45 minutes. Single cell homogenates were blocked with FcBlock and stained. In some experiments, avidin AlexaFluro488 was injected intradermally to label cutaneous mast cells were labelled in vivo. Mice were euthanized 7 days after injection.
In other methods, mast cells differentiated for 5-7 weeks (BMMCs) or 3-4 weeks (PMCs) were collected, blocked with FcBlock and stained with anti-FceRI PE (clone MAR-1, Biolegend), anti-CD117 eFluor 450 clone 2B8, ThermoFisher) and anti-NK2R Alexa Fluor 647 or rabbit IgG Alexa Fluor 647 isotype control (Cell Signaling Technology). […]

A further test concerns BMMCs. Description: β-hexosaminidase release from BMMCs. It counts as cell-based, murine. As to conditions: incubated with NKA or activated with IgE and antigen in the presence of NKA. The protocol:
(§1) Mast cells (5×10^5-1×10^6) were loaded with IgE ([…]) for a minimum of 3 h in Tyrode's Buffer. Neurokinin A ([…]) was added with DNP-HSA (Sigma, as indicated or 100 ng/mL) for 40 min at 37 C. Cells and supernatants were collected, cell pellets were lysed in Tyrode's Buffer by freeze-thawing then incubated with p-nitrophenyl N-acetyl j-D-glucosaminide (EMB Millipore, 5 mM) dissolved in citrate buffer (0.04 M, pH 4.5) for 90 minutes. The enzymatic reaction was stopped with glycine (0.4 M, pH 10.7). Absorbance at 450 nm was read. The average percentage of b-hexosaminidase release from triplicate values was calculated as (ODsup/ODsup+ODlysate)×100(%).

The test system of another test is PMCs. In words: β-hexosaminidase release from PMCs. Conditions: incubated with NKA or activated with IgE and antigen in the presence of NKA. The format is cell-based, murine. The protocol: as §1

As to Neurokinin A [NKA], in the test with IL10-eGFP^+ MCs, the “increase in percentage of IL10-eGFP^+ MCs” value is given as “two-fold”. Besides, the β-hexosaminidase release entry in the test on BMMCs and in the test on PMCs was “no difference” throughout.
